From ChEMBL document CHEMBL1944561, “Discovery and SAR exploration of a novel series of imidazo[4,5-b]pyrazin-2-ones as potent and selective mTOR kinase inhibitors” (Bioorg Med Chem Lett, 2011)

Columns and labels:
[1] = biological target: T1, Serine/threonine-protein kinase mTOR (Homo sapiens, UniProt P42345); experiment: Inhibition of mTOR
[2] = biological target: Phosphatidylinositol 4,5-bisphosphate 3-kinase catalytic subunit alpha isoform (Homo sapiens, UniProt P42336); experiment: Inhibition of PI3Kalpha
Chain of Phosphatidylinositol 4,5-bisphosphate 3-kinase catalytic subunit alpha isoform (P42336 whole entry, canonical isoform): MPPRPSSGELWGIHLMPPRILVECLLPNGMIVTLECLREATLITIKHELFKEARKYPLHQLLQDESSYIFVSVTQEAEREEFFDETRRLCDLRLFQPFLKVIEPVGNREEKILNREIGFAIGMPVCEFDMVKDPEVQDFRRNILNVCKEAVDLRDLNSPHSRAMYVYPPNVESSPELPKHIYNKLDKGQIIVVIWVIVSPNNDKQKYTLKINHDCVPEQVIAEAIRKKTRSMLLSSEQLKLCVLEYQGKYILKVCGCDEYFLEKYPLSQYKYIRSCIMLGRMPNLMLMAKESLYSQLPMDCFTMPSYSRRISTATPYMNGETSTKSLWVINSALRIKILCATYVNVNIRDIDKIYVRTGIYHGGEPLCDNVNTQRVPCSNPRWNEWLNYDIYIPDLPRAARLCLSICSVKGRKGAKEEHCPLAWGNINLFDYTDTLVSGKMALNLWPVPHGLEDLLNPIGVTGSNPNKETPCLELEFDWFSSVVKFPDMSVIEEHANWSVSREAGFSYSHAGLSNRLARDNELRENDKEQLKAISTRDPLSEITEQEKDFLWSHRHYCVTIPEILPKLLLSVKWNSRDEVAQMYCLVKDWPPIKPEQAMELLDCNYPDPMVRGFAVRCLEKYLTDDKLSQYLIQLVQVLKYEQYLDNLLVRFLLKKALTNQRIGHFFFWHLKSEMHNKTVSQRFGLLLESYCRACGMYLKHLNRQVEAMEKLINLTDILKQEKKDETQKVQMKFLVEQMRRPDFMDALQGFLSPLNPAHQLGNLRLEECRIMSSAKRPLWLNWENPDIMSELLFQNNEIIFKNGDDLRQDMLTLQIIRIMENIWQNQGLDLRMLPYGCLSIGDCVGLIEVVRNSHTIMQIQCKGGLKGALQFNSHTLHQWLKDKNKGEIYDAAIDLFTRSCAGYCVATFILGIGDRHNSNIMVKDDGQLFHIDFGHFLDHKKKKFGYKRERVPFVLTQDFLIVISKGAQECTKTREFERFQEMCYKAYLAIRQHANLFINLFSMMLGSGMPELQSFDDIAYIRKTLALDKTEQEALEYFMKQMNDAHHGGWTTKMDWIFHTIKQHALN

PC-3 = experiment: Antiproliferative activity against human PC3 cells
[3] = biological target: T1, Serine/threonine-protein kinase mTOR; experiment: Inhibition of mTOR-mediated S6 phosphorylation in human PC3 cells; type: cell-based, PC-3
[4] = biological target: T1, Serine/threonine-protein kinase mTOR; experiment: Inhibition of mTOR-mediated Akt phosphorylation in human PC3 cells; type: cell-based, PC-3
[5] = Metabolic stability in rat hepatocytes assessed as compound remaining after 60 mins; type: ADME, cell-based, Hepatocyte; conditions: read-out: Stability

SMILES	IC50 [1]	also measured
O=c1[nH]c2ncc(-c3ccc(-c4cnco4)cc3)nc2n1CC1CCCCC1	1360 nM	
O=C(O)c1ccc(-c2cnc3[nH]c(=O)n(CC4CCCCC4)c3n2)cc1	130 nM	IC50 [2]: 23500 nM
O=c1[nH]c2ncc(-c3ccccc3)nc2n1CC1CCCCC1	> 10000 nM	
O=c1[nH]c2ncc(-c3ccc(O)cc3)nc2n1C1CCCCC1	2880 nM	
NC(=O)c1ccc(-c2cnc3[nH]c(=O)n(CC4CCCCC4)c3n2)cc1	70 nM	IC50 [2]: > 30000 nM
O=c1[nH]c2ncc(-c3ccc(-c4ncc[nH]4)cc3)nc2n1CC1CCOCC1		IC50 (PC-3): 916 nM
CNC(=O)c1ccc(-c2cnc3[nH]c(=O)n(CC4CCCCC4)c3n2)cc1	120 nM	
O=c1[nH]c2ncc(-c3ccc(-n4ccnn4)cc3)nc2n1CC1CCCCC1	> 10000 nM	
COC(=O)c1ccc(-c2cnc3[nH]c(=O)n(CC4CCCCC4)c3n2)cc1	> 10000 nM	
NC(=O)[C@H]1CC[C@@H](n2c(=O)[nH]c3ncc(-c4ccc(O)cc4)nc32)CC1	179 nM	IC50 [3]: > 5000 nM; IC50 [4]: > 5000 nM; IC50 (PC-3): > 5000 nM
O=c1[nH]c2ncc(-c3ccc(O)cc3)nc2n1Cc1cccc(O)c1	1050 nM	
CC(C)n1c(=O)[nH]c2ncc(-c3ccc(O)cc3)nc21	1040 nM	
CC(C)NC(=O)c1ccc(-c2cnc3[nH]c(=O)n(CC4CCCCC4)c3n2)cc1	8900 nM	
O=c1[nH]c2ncc(-c3ccc(-c4nn[nH]n4)cc3)nc2n1CC1CCCCC1	1590 nM	
CO[C@H]1C[C@@H]2CC[C@@H](C)[C@@](O)(O2)C(=O)C(=O)N2CCCC[C@H]2C(=O)O[C@H]([C@H](C)C[C@@H]2CC[C@@H](O)[C@H](OC)C2)CC(=O)[C@H](C)/C=C(\C)[C@@H](O)[C@@H](OC)C(=O)[C@H](C)C[C@H](C)/C=C/C=C/C=C/1C [SIROLIMUS]		IC50 (PC-3): < 10 nM
COCCn1c(=O)[nH]c2ncc(-c3ccc(O)cc3)nc21	2380 nM	
NC(=O)[C@H]1CC[C@H](n2c(=O)[nH]c3ncc(-c4ccc(O)cc4)nc32)CC1	178 nM	IC50 [3]: > 5000 nM; IC50 [4]: > 5000 nM; IC50 (PC-3): > 5000 nM
CC(C)Cn1c(=O)[nH]c2ncc(-c3ccc(O)cc3)nc21	1020 nM	

Continued, in another order:

IC50 [1]	SMILES	also measured
14100 nM	CN1CCC(Cn2c(=O)[nH]c3ncc(-c4ccc(O)cc4)nc32)CC1	
390 nM	O=c1[nH]c2ncc(-c3cnc4[nH]cnc4c3)nc2n1CC1CCOCC1	
63 nM	O=c1[nH]c2ncc(-c3ccc4[nH]ccc4c3)nc2n1CC1CCCCC1	IC50 [2]: > 30000 nM
6 nM	CNc1nc2cc(-c3cnc4[nH]c(=O)n(CC5CCOCC5)c4n3)ccc2[nH]1	IC50 [2]: > 30000 nM; IC50 [3]: > 5000 nM; IC50 (PC-3): > 5000 nM
120 nM	O=c1[nH]c2ncc(-c3ccc(-c4cn[nH]c4)cc3)nc2n1CC1CCCCC1	IC50 [2]: > 30000 nM
21 nM	O=c1[nH]c2ncc(-c3ccc4[nH]ccc4c3)nc2n1CC1CCOCC1	IC50 [2]: > 30000 nM; IC50 [3]: 231 nM; IC50 [4]: 50 nM; IC50 (PC-3): 602 nM
8300 nM	NCc1ccc(-c2cnc3[nH]c(=O)n(CC4CCCCC4)c3n2)cc1	
2 nM	Nc1nc2ccc(-c3cnc4[nH]c(=O)n(CC5CCCCC5)c4n3)cc2[nH]1	IC50 [3]: 201 nM; IC50 [4]: 92 nM; IC50 (PC-3): 566 nM
1670 nM	O=c1[nH]c2ncc(-c3ccc(O)cc3)nc2n1C1CCOCC1	
60 nM	O=c1[nH]c2ncc(-c3ccc(CO)cc3)nc2n1CC1CCCCC1	IC50 [2]: > 30000 nM; remaining at 1 h [5]: 8%
10 nM	Nc1nc2cc(-c3cnc4[nH]c(=O)n(CC5CCOCC5)c4n3)ccc2[nH]1	
190 nM	O=c1[nH]c2ncc(-c3ccc4[nH]ncc4c3)nc2n1CC1CCCCC1	IC50 [2]: 12600 nM; IC50 [3]: 633 nM; IC50 (PC-3): 2120 nM
9 nM	O=c1[nH]c2ncc(-c3ccc(-c4nc[nH]n4)cc3)nc2n1CC1CCCCC1	
340 nM	O=c1[nH]c2ncc(-c3ccc(O)cc3)nc2n1CC1CCOCC1	
30 nM	O=c1[nH]c2ncc(-c3ccc4[nH]cnc4c3)nc2n1CC1CCOCC1	
3500 nM	O=c1[nH]c2ncc(-c3ccc4cc[nH]c4c3)nc2n1CC1CCCCC1	
780 nM	O=c1[nH]c2ncc(-c3ccc(O)cc3)nc2n1CC1CCCCC1	
